Results taken from patent publication US11149248B2, “Bioreactor system” (KIYATEC INC., priority 2013, dated 2021).

How the values were obtained:
[1] = system: Human mammary epithelial cells (hMEC); assay: PrestoBlue cell viability analysis in 2D, 3D static and 3D perfusion culture; type: cell-based; settings: hMEC cultured over 7 days with increasing concentrations of cisplatin, 3D static, 3D perfusion (FIG. 16)
Method: (§1) The experiment was performed in a single chamber culture system (one chamber of a 3DKUBE in an “independent chamber” configuration) or using wells in a 12-well plate. […] The inlet port was connected to an opening in a first side of the 3DKUBE cell module and the outlet port connected to an opening in a second side of the cell module. The chamber featured an imaging widow enabling non-lytic analysis inside the chamber through various spectrophotometric and other techniques.
(§2) Human mammary epithelial cells (hMEC) were utilized. For 2D experiments hMEC were cultured on the bottom of 12-well plates as per typical cell culture practices (referred to as “2D” experiments). For 3D static and perfusion experiments hMEC were suspended in a Matrigel™:Collagen (rat tail collagen Type I) mixture which was added to silk fibroin scaffolds (H 2.5 mm×W 5 mm) contained in 12-well plates (referred to as “3D static”) or 3DKUBEs (referred to as “3D perfusion”). […]
(§3) The secretion of lactate dehydrogenase (LDH) is a non-lytic assay of cytotoxicity. […] The cells were cultured in these 2D, 3D static, or 3D perfusion configurations over 7 days in media alone or in media with increasing concentrations of cisplatin (a DNA alkylating agent used in chemotherapy) and analyzed via PrestoBlue or LDH release (examples of non-lytic means of assessing cell viability or cytotoxicity). […]

[2] = system: Human mammary epithelial cells (hMEC); assay: LDH release cytotoxicity assay in 2D, 3D static and 3D perfusion culture; type: cell-based; settings: 2% triton 2 hours prior to analysis, positive control
Method: as §1, §2, §3

Row | Compound | cell viability (PrestoBlue analysis) [1] | maximal cell lysis (LDH release) ([2]; 2D and 3D static (12-well plates)) | increase of LDH release ([2]; 3D perfusion (3DKUBE))
1 | N.N.[Cl][Pt][Cl] [cisplatin] | decrease in cell viability that is only statistically significant in 3D static and 3D perfusion | – | –
2 | triton | – | reduced maximal cell lysis | approximately 2.5 fold
